How the values were obtained:
wild type K-Ras = molecular target: T1, wild type K-Ras (Homo sapiens, UniProt P01116); experiment: Covalent modification of recombinant wild-type K-Ras by whole-protein mass spectrometry; format: binding; conditions: 24-h incubation, 100 μM compound, 23° C., pH 7.5
T1 construct: human K-Ras (wildtype, aa 1-169); 6xHis tag + TEV cleavage site (N, cleaved yes); made in house; host or cells: E. coli BL21(DE3)

[1] = tested on: A375 cells (wild-type KRAS); experiment: Immunoblot in A375 cells; format: cell-based; conditions: 10 μM, 2 h
Method: (§1) Cells were passed for at least two generations after cryorecovery before they were used for assays. All cell lines were tested mycoplasma negative using MycoAlert™ Mycoplasma Detection Kit (Lonza). When indicated, cells were treated with drugs at 40-60% confluency at a final DMSO concentration of 1%. At the end of treatment period, cells were placed on ice. Unless otherwise indicated, adherent cells were washed once with ice-cold PBS (1 mL), scraped with a spatula, and pelleted by centrifugation (500×g, 5 min). Suspension cells were pelleted by centrifugation (500×g, 5 min), washed with 1 mL ice-cold PBS, and pelleted again. Cells were lysed in RIPA buffer supplemented with protease and phosphatase inhibitors (cOmplete and phosSTOP, Roche) on ice for 10 min. For RBD pulldown experiments, cells were lysed in Co-IP Lysis Buffer in lieu of RIPA buffer. Lysates were clarified by high-speed centrifugation (19,000×g, 10 min). Concentrations of lysates were determined with protein BCA assay (Thermo Fisher) and adjusted to 2 mg/mL with additional RIPA buffer (or Co-IP Lysis Buffer). […]
(§2) Unless otherwise noted, SDS-PAGE was run with Novex 16% Bis-Tris gel (Invitrogen) in MES running buffer (Invitrogen) at 200 V for 60 min following the manufacturer's instructions. […] The membrane was washed three times with TBST (5 min each wash) and imaged on a Li-COR Odyssey fluorescence imager.

[2] = tested on: SW1990 cells (homozygous KRAS p.G12D); experiment: Immunoblot in SW1990 cells (G12S ligand); format: cell-based; conditions: 10 μM, 2 h
Method: as §1, §2

K-Ras G12E = molecular target: T2, K-Ras G12E (Homo sapiens, UniProt P01116, G12E); experiment: Covalent modification of test protein after incubation with compound; format: binding; conditions: 24-h incubation with 100 μM compound at 23° C. at pH 7.5
T2 construct: human K-Ras (G12E, aa 1-169); 6xHis tag + TEV cleavage site (N, cleaved yes); made in house; host or cells: E. coli BL21(DE3)

K-Ras(G12S) = K-Ras(G12S) (Homo sapiens, UniProt P01116, G12S); experiment: Covalent modification of recombinant K-Ras(G12S) by whole-protein mass spectrometry; format: binding; design: human K-Ras (G12S, aa 1-169); 6xHis tag + TEV cleavage site (N, cleaved yes); made in house; host or cells: E. coli BL21(DE3); conditions: 23° C.
Method in brief: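 Recombinant K-Ras diluted to 400 nM or 1 μM in 20 mM HEPES pH 7.5, 150 mM NaCl, 1 mM MgCl2 and incubated with compound added from 100× DMSO stock. Modification extent measured by electrospray whole-protein mass spectrometry; kinetics used 1:1 mixing with 400 nM protein and injection time stamps for elapsed time.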

O=C1O[C@H]2CN(c3nc(OCC45CCCN4CCC5)nc4c(F)c(-c5cccc6cccc(Cl)c56)ncc34)CC[C@@H]12 [5′]
% covalent modification of wild type K-Ras (wild type K-Ras): 0% | signaling in A375 cells [1]: did not perturb the signaling | signaling in SW1990 cells [2]: did not perturb the signaling | % covalent modification of K-Ras G12E (K-Ras G12E): 0% | covalent reaction with K-Ras(G12S)·GDP (K-Ras(G12S); 10 μM compound): enhanced reaction | time to 100% modification of K-Ras(G12S)·GDP (K-Ras(G12S); 10 μM): < 10 min | % covalent modification of K-Ras G12S (K-Ras(G12S); 24-h incubation, 100 μM compound, pH 7.5): 100%
